Experimental data reported in publication PMC9527238, “Glutamate and GABAA receptor crosstalk mediates homeostatic regulation of neuronal excitation in the mammalian brain” (Signal Transduction and Targeted Therapy, 2022).

How the values were obtained:
Format in all cases: cell-based
rat α1β2 GABAARs = target: T1, rat α1β2 GABAARs (Rattus norvegicus, UniProt P62813+P63138); assay: Whole-cell patch clamp of GABA-evoked currents, HEK293 cells expressing α1β2
T1 construct: expressed in transfected cells; host or cells: HEK293
Source text: Co-expression of the α and β subunits is the minimum requirement for a functional recombinant GABAAR expressed in a heterologous cell line such as HEK293, while co-expression of the α, β and γ subunits is required for the recombinant receptor with a full pharmacological profile.[2] We therefore transiently expressed either rat α1β2 or α1β2γ2 subunits in HEK293 cells.
HEK293 cells were transiently transfected with rat GABAAR α1/β2 (a–e) or α1/β2/γ2 (f) subunits. Whole-cell voltage-clamp recordings were performed with a chloride-based intracellular recording solution at a holding membrane potential of −60 mV.
(§1) HEK293 cells were cultured in DMEM (Invitrogen) supplemented with 10% fetal bovine serum. Cells were grown to 40–60% confluence and transiently transfected using Lipofectamine 2000 (Invitrogen) with 1:0.5–1 plasmid/lipid ratio. Cells were transfected with a pBK-CMV expression vector containing a rat recombinant GABAAR α, β or γ subunits. Co-transections were done with a plasmid ratio of 1:1 αβ and 2:2:1 for αβγ subunit combinations, respectively. pcDNA3.1-GFP was also co-transfected along with GABAAR subunits as a transfected marker in order to facilitate the visualization of the transfected cells during electrophysiological experiments. Cells were re-plated on glass coverslips after 15–20 h transfection and were cultured for an additional 15–24 h before whole-cell patch-clamp recordings.
(§2) Whole-cell patch-clamp recordings were performed under voltage-clamp mode using an Axopatch 200B or 1D patch-clamp amplifier (Molecular Devices) on HEK293 cells and cultured neurons. Whole-cell currents were recorded at a holding potential of −60 mV, and signals were filtered at 2 kHz, digitized at 10 kHz (Digidata 1322 A). Recording pipettes (3–5 MΩ) were filled with the intracellular solution that contained (mM): CsCl 140, HEPES 10, Mg-ATP 4, QX-314 5, pH 7.20; osmolarity, 290–295 mOsm. BAPTA (10 mM) was added in the intracellular solution. The coverslips were continuously superfused with the extracellular solution containing (mM): NaCl 140, KCl 5.4, HEPES 10, MgCl2 1.0, CaCl2 1.3, glucose 20, pH 7.4; osmolarity, 305–315 mOsm. […] Dose–response curves were created by fitting data to Hill equation: I = Imax/[1 + (EC50/[A])^n], where I is the current, Imax is the maximum current, [A] is a given concentration of agonist, n is the Hill coefficient. […] All experiments were performed at room temperature.

α1 β2^E181G γ2 GABAAR = target: T2, α1 β2^E181G γ2 GABAAR (Rattus norvegicus, UniProt P62813+P63138, E206G); assay: Patch clamp, HEK293, mutant GABAAR; conditions: normalized to wild-type α1β2γ2; for Relative potentiation: glutamate 100 μM co-applied with GABA 1 μM
T2 construct: expressed in transfected cells; host or cells: HEK293
Source text: (§3) The subunits are color-coded individually. The boxed regions are further enlarged in the middle panels, highlighting the predicted glutamate binding pocket in the α+ and β− interface, just below the loop C. […] Relative potentiation was obtained by normalizing potentiation observed in the mutated receptor to that in the respective wild-type receptor.
(§4) To positively confirm one of these two putative binding sites involved in glutamate binding, we performed a systemic mutational analysis of critical amino acids around these two sites followed by electrophysiological characterizations of their impacts on glutamate potentiation in HEK293 cells expressing wild-type or mutated α1β2γ2 GABAARs (Table 1).
as §1
(§5) The site-directed mutagenesis of α, β or γ subunits were performed by using the QuikChange method (Stratagene). […] Wild-type or mutant subunits were transfected in HEK293 cells and subjected to electrophysiology examinations.
as §2

α1^E137G β2 γ2 GABAAR = target: T3, α1^E137G β2 γ2 GABAAR (Rattus norvegicus, UniProt P62813+P63138, E164G); assay: Patch clamp, HEK293, mutant GABAAR; conditions: Glu 1 mM; GABA 1 µM; normalized to wild-type α1β2γ2
T3 construct: expressed in transfected cells; host or cells: HEK293
Source text: as §3, §4, §1, §5, §2

α1^K104D β2 γ2 GABAAR = target: T4, α1^K104D β2 γ2 GABAAR (Rattus norvegicus, UniProt P62813+P63138, K131D); assay: Patch clamp, HEK293, mutant GABAAR; conditions: Glu 1 mM; GABA 1 µM; normalized to wild-type α1β2γ2
T4 construct: expressed in transfected cells; host or cells: HEK293
Source text: as §3, §4, §1, §5, §2

α1^K155D β2 γ2 GABAAR = target: T5, α1^K155D β2 γ2 GABAAR (Rattus norvegicus, UniProt P62813+P63138, K182D); assay: Patch clamp, HEK293, mutant GABAAR; conditions: Glu 1 mM; GABA 1 µM; normalized to wild-type α1β2γ2
T5 construct: expressed in transfected cells; host or cells: HEK293
Source text: as §3, §4, §1, §5, §2

αE137Dβγ GABAAR = target: T6, αE137Dβγ GABAAR (Rattus norvegicus, UniProt P62813+P63138, E164D); assay: Patch clamp, HEK293, mutant GABAAR; conditions: HEK293, read-out: Glutamate potentiation of GABA currents, % of control, normalized to wild-type α1β2γ2
T6 construct: expressed in transfected cells; host or cells: HEK293
Source text: (§6) To further determine the relative significance between the electrostatic and the side chain steric arrangements of these critical amino acid residues in their interaction with glutamate, we next studied the effects of substitution of these amino acids with amino acids of various sizes or charges on the glutamate potentiation. We substituted α1K104, α1E137, α1K155, or β2E181 with […], a non-charged amino acid, in order to perturb the electrostatic accessibility of glutamate to the binding pocket.
(§7) Fig. 4 Property characterization of glutamate binding sites in HEK cells expressing wild-type or mutated αβγ GABAARs. a, b The effects of electrostatic charge and/or size of the pocket-forming residues on glutamate-induced functional modulation.
as §1, §5, §2

αE137Wβγ GABAAR = target: T7, αE137Wβγ GABAAR (Rattus norvegicus, UniProt P62813+P63138, E164W); assay: Patch clamp, HEK293, mutant GABAAR; conditions: HEK293, read-out: Glutamate potentiation of GABA currents, % of control, normalized to wild-type α1β2γ2
T7 construct: expressed in transfected cells; host or cells: HEK293
Source text: as §6, §7, §1, §5, §2

αK155Wβγ GABAAR = target: T8, αK155Wβγ GABAAR (Rattus norvegicus, UniProt P62813+P63138, K182W); assay: Patch clamp, HEK293, mutant GABAAR; conditions: HEK293, read-out: Glutamate potentiation of GABA currents, % of control, normalized to wild-type α1β2γ2
T8 construct: expressed in transfected cells; host or cells: HEK293
Source text: as §6, §7, §1, §5, §2

αE137Gβ GABAAR = target: T9, αE137Gβ GABAAR (Rattus norvegicus, UniProt P62813+P63138, E164G); assay: Patch clamp, HEK293, mutant α1β2 GABAAR; conditions: HEK293, read-out: Glutamate potentiation of GABA currents, % of control, normalized to wild-type α1β2
T9 construct: expressed in transfected cells; host or cells: HEK293
Protocol: as §3, §1, §5, §2

αK104Dβ GABAAR = target: T10, αK104Dβ GABAAR (Rattus norvegicus, UniProt P62813+P63138, K131D); assay: Patch clamp, HEK293, mutant α1β2 GABAAR; conditions: HEK293, read-out: Glutamate potentiation of GABA currents, % of control, normalized to wild-type α1β2
T10 construct: expressed in transfected cells; host or cells: HEK293
Protocol: as §3, §1, §5, §2

αK155Dβ GABAAR = target: T11, αK155Dβ GABAAR (Rattus norvegicus, UniProt P62813+P63138, K182D); assay: Patch clamp, HEK293, mutant α1β2 GABAAR; conditions: HEK293, read-out: Glutamate potentiation of GABA currents, % of control, normalized to wild-type α1β2
T11 construct: expressed in transfected cells; host or cells: HEK293
Protocol: as §3, §1, §5, §2

αβE181G GABAAR = target: T12, αβE181G GABAAR (Rattus norvegicus, UniProt P62813+P63138, E206G); assay: Patch clamp, HEK293, mutant α1β2 GABAAR; conditions: HEK293, read-out: Glutamate potentiation of GABA currents, % of control, normalized to wild-type α1β2
T12 construct: expressed in transfected cells; host or cells: HEK293
Protocol: as §3, §1, §5, §2

T1 sequence (P62813 28-455): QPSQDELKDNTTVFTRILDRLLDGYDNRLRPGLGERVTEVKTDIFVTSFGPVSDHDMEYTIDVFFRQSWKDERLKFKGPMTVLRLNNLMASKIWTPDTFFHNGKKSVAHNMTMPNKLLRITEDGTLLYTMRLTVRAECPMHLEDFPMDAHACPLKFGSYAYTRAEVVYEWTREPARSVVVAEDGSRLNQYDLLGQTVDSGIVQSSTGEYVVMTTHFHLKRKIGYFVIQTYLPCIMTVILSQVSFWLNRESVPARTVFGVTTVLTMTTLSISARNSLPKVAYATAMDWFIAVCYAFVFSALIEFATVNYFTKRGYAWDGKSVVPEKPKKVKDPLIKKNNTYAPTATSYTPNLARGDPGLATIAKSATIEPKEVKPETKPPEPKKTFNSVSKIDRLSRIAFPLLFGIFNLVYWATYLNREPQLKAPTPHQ
T1 sequence (P63138 26-474): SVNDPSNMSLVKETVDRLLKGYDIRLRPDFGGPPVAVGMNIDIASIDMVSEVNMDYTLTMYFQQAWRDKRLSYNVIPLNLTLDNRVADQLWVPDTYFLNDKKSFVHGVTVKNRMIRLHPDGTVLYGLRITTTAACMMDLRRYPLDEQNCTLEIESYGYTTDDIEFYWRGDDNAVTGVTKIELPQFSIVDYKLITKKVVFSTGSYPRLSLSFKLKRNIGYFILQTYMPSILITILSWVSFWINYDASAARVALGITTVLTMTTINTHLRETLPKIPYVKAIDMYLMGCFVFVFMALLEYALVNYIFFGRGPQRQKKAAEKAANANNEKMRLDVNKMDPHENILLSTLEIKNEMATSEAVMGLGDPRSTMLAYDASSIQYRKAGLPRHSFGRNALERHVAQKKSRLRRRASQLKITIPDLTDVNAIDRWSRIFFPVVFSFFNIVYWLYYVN
T2 sequence (P62813 28-455): as the sequence (P62813 28-455) above
T2 sequence (P63138 26-474 E206G): as the sequence (P63138 26-474) above, with E181G counted along it
T2 sequence (P18508 39-466 partner): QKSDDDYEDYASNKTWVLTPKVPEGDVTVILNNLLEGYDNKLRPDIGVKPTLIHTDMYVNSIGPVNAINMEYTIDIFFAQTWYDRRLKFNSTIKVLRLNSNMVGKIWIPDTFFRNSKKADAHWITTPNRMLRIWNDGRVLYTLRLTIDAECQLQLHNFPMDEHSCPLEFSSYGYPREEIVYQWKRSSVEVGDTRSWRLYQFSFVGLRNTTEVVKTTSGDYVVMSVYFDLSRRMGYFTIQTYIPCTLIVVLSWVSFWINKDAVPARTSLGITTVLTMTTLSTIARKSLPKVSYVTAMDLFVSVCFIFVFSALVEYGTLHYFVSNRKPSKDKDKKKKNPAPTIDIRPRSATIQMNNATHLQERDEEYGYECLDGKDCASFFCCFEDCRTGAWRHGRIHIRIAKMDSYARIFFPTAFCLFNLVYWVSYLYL
T11 sequence (P62813 28-455 K182D): as the sequence (P62813 28-455) above, with K155D counted along it
T11 sequence (P63138 26-474): as the sequence (P63138 26-474) above
T7 sequence (P62813 28-455 E164W): as the sequence (P62813 28-455) above, with E137W counted along it
T7 sequence (P63138 26-474): as the sequence (P63138 26-474) above
T7 sequence (P18508 39-466 partner): as the sequence (P18508 39-466 partner) above
T6 sequence (P62813 28-455 E164D): as the sequence (P62813 28-455) above, with E137D counted along it
T6 sequence (P63138 26-474): as the sequence (P63138 26-474) above
T6 sequence (P18508 39-466 partner): as the sequence (P18508 39-466 partner) above
T10 sequence (P62813 28-455 K131D): as the sequence (P62813 28-455) above, with K104D counted along it
T10 sequence (P63138 26-474): as the sequence (P63138 26-474) above
T9 sequence (P62813 28-455 E164G): as the sequence (P62813 28-455) above, with E137G counted along it
T9 sequence (P63138 26-474): as the sequence (P63138 26-474) above
T8 sequence (P62813 28-455 K182W): as the sequence (P62813 28-455) above, with K155W counted along it
T8 sequence (P63138 26-474): as the sequence (P63138 26-474) above
T8 sequence (P18508 39-466 partner): as the sequence (P18508 39-466 partner) above
T12 sequence (P62813 28-455): as the sequence (P62813 28-455) above
T12 sequence (P63138 26-474 E206G): as the sequence (P63138 26-474) above, with E181G counted along it
T5 sequence (P62813 28-455 K182D): as the sequence (P62813 28-455) above, with K155D counted along it
T5 sequence (P63138 26-474): as the sequence (P63138 26-474) above
T5 sequence (P18508 39-466 partner): as the sequence (P18508 39-466 partner) above
T4 sequence (P62813 28-455 K131D): as the sequence (P62813 28-455) above, with K104D counted along it
T4 sequence (P63138 26-474): as the sequence (P63138 26-474) above
T4 sequence (P18508 39-466 partner): as the sequence (P18508 39-466 partner) above
T3 sequence (P62813 28-455 E164G): as the sequence (P62813 28-455) above, with E137G counted along it
T3 sequence (P63138 26-474): as the sequence (P63138 26-474) above
T3 sequence (P18508 39-466 partner): as the sequence (P18508 39-466 partner) above

## N[C@@H](CCC(=O)O)C(=O)O [glutamate, Glutamate]
Rat α1β2 GABAARs
  amplitude of GABA-induced currents with glutamate co-applied: 331.2 ± 44.5%
  current produced by glutamate on its own: no noticeable current
  lowest effective dose (20% potentiation): around 30 μM
  potentiation effect at saturated GABA concentration: almost no potentiation effect
Rat α1β2 GABAARs; potentiation of 1 μM GABA-induced currents, read-out: EC50 of glutamate potentiation
  EC50: ~180 µM
α1 β2^E181G γ2 GABAAR; Glu 1 mM, GABA 1 µM
  Relative potentiation, % of control: 1.8 ± 9.6%
α1 β2^E181G γ2 GABAAR
  Relative potentiation: 1.6 ± 11.6%
α1 β2^E181G γ2 GABAAR; listed as Glu
  Relative potentiation: 1.6 ± 11.6%
α1^E137G β2 γ2 GABAAR
  Relative potentiation, % of control: 26.9 ± 6.4%
α1^K104D β2 γ2 GABAAR
  Relative potentiation, % of control: 18.6 ± 6.3%
α1^K155D β2 γ2 GABAAR
  Relative potentiation, % of control: 19.8 ± 11.7%
αE137Dβγ GABAAR; Glu 100 μM
  activity at 100 µM: 106 ± 18.3%
αE137Dβγ GABAAR; Glu 1 mM
  activity at 1000 µM: 91.5 ± 15.4%
αE137Wβγ GABAAR; Glu 100 μM
  activity at 100 µM: 14.7 ± 6.3%
αE137Wβγ GABAAR; Glu 1 mM
  activity at 1000 µM: 21.1 ± 4.4%
αK155Wβγ GABAAR; Glu 100 μM
  activity at 100 µM: 4 ± 4.7%
αK155Wβγ GABAAR; Glu 1 mM
  activity at 1000 µM: 29.9 ± 8.8%
αE137Gβ GABAAR; Glu 100 μM
  activity at 100 µM: 109 ± 30.2%
αE137Gβ GABAAR; Glu 1 mM
  activity at 1000 µM: 88.4 ± 5.9%
αK104Dβ GABAAR; Glu 100 μM
  activity at 100 µM: 48.8 ± 9.5%
αK104Dβ GABAAR; Glu 1 mM
  activity at 1000 µM: 94.7 ± 20.7%
αK155Dβ GABAAR; Glu 100 μM
  activity at 100 µM: 76.3 ± 10.5%
αK155Dβ GABAAR; Glu 1 mM
  activity at 1000 µM: 90.1 ± 11.3%
αβE181G GABAAR; Glu 100 μM
  activity at 100 µM: 51.2 ± 9.5%
αβE181G GABAAR; Glu 1 mM
  activity at 1000 µM: 50.6 ± 8.4%
